Source: patent US12263248B2, “Compounds and compositions for intracellular delivery of therapeutic agents” (ModernaTX, Inc., priority 2018, dated 2025)

Tests used:
[1] = system: luciferase (Luc) mRNA; experiment: Luc expression in liver, lung, spleen and femur 6 hours after intravenous administration; format: in vivo; settings: mice, intravenous, 0.5 mpk
Summary of the method: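 LNP-formulated mRNA given IV to mice (n=3) at 0.5 mpk; at 6 h, bioluminescence imaged ex vivo 15 min after IP D-luciferin (15 mg/mL, 200 μL), organs imaged within 25 min. Values are total flux by region of interest.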

[2] = system: IL-6, IP-10; experiment: Cytokine induction in mice upon intravenous administration; format: in vivo; parameters: Cytokine induction IL-6 / Cytokine induction IP-10: unit not given here; settings: intravenous, 0.5 mpk, 6 hours
Summary of the method: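 Mice dosed intravenously with nanoparticle compositions at 0.5 mpk; serum cytokine concentrations (IL-6, IP-10) measured at 6 hours. MC3 formulation and PBS controls run alongside.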

[3] = Particle size and polydispersity index of nanoparticle compositions (Zetasizer Nano ZS); format: physicochemical
Summary of the method: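 Nanoparticle compositions are diluted in 1×PBS, then size and polydispersity index are read on a Zetasizer Nano ZS instrument.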

[4] = system: luciferase (Luc) mRNA; experiment: Luc expression, whole body bioluminescence after intravenous administration to mice; format: in vivo
Summary of the method: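 Luc mRNA nanoparticle formulations given intravenously to mice (n=6) at 0.5 mg/kg; whole-body bioluminescence imaged at 3, 6 and 24 h. CD-1 mice received IP D-luciferin (200 μL of 15 mg/mL) 15 min before imaging; total flux quantified by region of interest.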

[5] = system: luciferase (Luc) mRNA; experiment: Luc expression (total flux) after intramuscular administration; format: in vivo, mice
Summary of the method: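 Mice given a single intramuscular dose of lipid nanoparticle formulations carrying modified Luc mRNA, alone or with H10 mRNA, at 0.001 or 0.01 mpk total. Luciferase expression recorded as total flux.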

[6] = Table 1B, formulated with hEPO mRNA
[7] = Table 1C, compositions for subcutaneous administration
[8] = Table 1D, for subcutaneous administration, # formulated with hEPO mRNA
[9] = Table 1E, compositions for subcutaneous administration

## CCCCC/C=C\C/C=C\CCCCCCCCC(CCCCCCCC/C=C\C/C=C\CCCCC)OC(=O)CCCN(C)C [MC3, DLin-MC3-DMA, reference compound]
[1]; femur
  Total Flux Femur: 2.56E+06
[1]; liver
  Total Flux Liver: 2.57E+09
[1]; lung
  Total Flux Lung: 1.27E+07
[1]; spleen
  Total Flux Spleen: 2.85E+07
[2]
  Cytokine induction IL-6: 124.42
  Cytokine induction IP-10: 504.90
[3]; Table 1A
  PDI: 0.11
[3]; Table 1A, lipid:DSPC:cholesterol:PEG-DMG 50:10:38.5:1.5 mol %
  Size (nm): 79.7 nm
[3]; [6]
  PDI: 0.12
  Size (nm): 57.7 nm
[3]; [7]
  PDI: 0.09
  Size (nm): 56.9 nm
[3]; [8]
  PDI: 0.15
  Size (nm): 69.1 nm
[3]; [9]
  PDI: 0.10
  Size (nm): 62.4 nm
[3]; lipid nanoparticle, ±SD within one assay run (Table 37)
  PDI (Polydispersity index): 0.11 ± 0.04
[3]; lipid:DSPC:Chol:PEG-DMG (50:10:38.5:1.5), hEPO mRNA
  PDI: 0.114
[3]; nanoparticle composition with hEPO mRNA (Table 30)
  PDI: 0.220
[4]; 0.5 mpk dose to mouse, 6 hours after administration
  Lipid/MC3 Luc expression: 1
[4]; Table 3A, i.v. administration
  Fold increase in total body Luc Flux relative to MC3 at 6 h: 1.00
[4]; Table 3C, i.v. administration
  6 h Lipid/MC3 Avg. Luc Expression: 1
  Fold increase AUC Lipid/MC3: 1
[4]; Table 3C, i.v. administration, Luc
  AUC (h * p/s): 8.24E+10 h * p/s
[4]; Table 3D, intravenous
  Lipid/MC3 AUC: 1
[4]; Table 3D, intravenous, Luc
  AUC (p/s * h): 1.909E+011 p/s * h
[4]; mice, i.v., 0.5 mg/kg, Luc mRNA, 3 hours
  Total Flux 3 hours: 1.58E+10
[4]; mice, i.v., 0.5 mg/kg, Luc mRNA, 6 hours
  Total Flux 6 hours: 2.12E+10
[4]; mice, i.v., 0.5 mg/kg, Luc mRNA, 24 hours
  Total Flux 24 hours: 7.19E+08
[4]; mice, intravenous, 6 h
  Average total flux (6 h, ffluc): 6.59 × 10^9
  Fold increase in average total flux relative to MC3: 1
[5]; 6 hours after intramuscular administration, 0.001 mpk, Luc mRNA and H10 mRNA
  Total flux, 0.001 mpk Dose: 2.76E+06 p/s
[5]; 6 hours after intramuscular administration, 0.01 mpk, Luc mRNA and H10 mRNA
  Total flux, 0.01 mpk Dose: 3.68E+07 p/s
[5]; Table 3H, intramuscular, Luc
  AUC (p/s * h): 5.88E+08 p/s * h
  Lipid/MC3 AUC: 1
[5]; Table 5B, 6 hours after intramuscular administration, 0.01 mpk
  Total flux (p/s) 0.01 mpk Dose: 3.23E+07 p/s
